Laboratory results taken from paper PMC9518264, “Design and synthesis of novel quinazolinone-based derivatives as EGFR inhibitors with antitumor activity” (Journal of Enzyme Inhibition and Medicinal Chemistry, 2022).

Legend:
SW-620 = assay: cells; format: cell-based; conditions: Homo sapiens, SW-620, read-out: growth inhibition % (GI%)
MCF7 = assay: cells; format: cell-based; conditions: Homo sapiens, MCF7, read-out: growth inhibition % (GI%)
PC-3 = assay: cells; format: cell-based; conditions: Homo sapiens, PC-3, read-out: growth inhibition % (GI%)
MDA-MB-435 = assay: cells; format: cell-based; conditions: Homo sapiens, MDA-MB-435, read-out: growth inhibition % (GI%)
KM12 = assay: cells; format: cell-based; conditions: Homo sapiens, KM12, read-out: growth inhibition % (GI%)
COLO-205 = assay: cells; format: cell-based; conditions: Homo sapiens, COLO 205, read-out: growth inhibition % (GI%)
MOLT-4 = assay: cells; format: cell-based; conditions: Homo sapiens, MOLT-4, read-out: growth inhibition % (GI%)
NCI/ADR-RES = assay: cells; format: cell-based; conditions: Homo sapiens, read-out: growth inhibition % (GI%)
MALME-3M = assay: cells; format: cell-based; conditions: Homo sapiens, Malme-3M, read-out: growth inhibition % (GI%)
HCT-116 = assay: cells; format: cell-based; conditions: Homo sapiens, HCT-116, read-out: growth inhibition % (GI%)
SF-539 = assay: cells; format: cell-based; conditions: Homo sapiens, SF-539, read-out: growth inhibition % (GI%)
A549/ATCC = assay: cells; format: cell-based; conditions: Homo sapiens, A549, read-out: growth inhibition % (GI%)
ACHN = assay: cells; format: cell-based; conditions: Homo sapiens, read-out: growth inhibition % (GI%)
SNB-19 = assay: cells; format: cell-based; conditions: Homo sapiens, SNB-19, read-out: growth inhibition % (GI%)
HOP-92 = assay: cells; format: cell-based; conditions: Homo sapiens, HOP-92, read-out: growth inhibition % (GI%)
NCI-H322M = assay: cells; format: cell-based; conditions: Homo sapiens, read-out: growth inhibition % (GI%)
MDA-MB-468 = assay: NCI 60 cell line antiproliferative screening (SRB), Breast cancer; conditions: Homo sapiens, MDA-MB-468, read-out: growth inhibition % (GI%)
OVCAR-8 = assay: cells; format: cell-based; conditions: Homo sapiens, OVCAR-8, read-out: growth inhibition % (GI%)
MDA-MB-231/ATCC = assay: NCI 60 cell line antiproliferative screening (SRB), Breast cancer; format: cell-based; conditions: Homo sapiens, MDA-MB-231, read-out: growth inhibition % (GI%)
DU-145 = assay: cells; format: cell-based; conditions: Homo sapiens, DU-145, read-out: growth inhibition % (GI%)
SN12C = assay: cells; format: cell-based; conditions: Homo sapiens, read-out: growth inhibition % (GI%)
786-0 = assay: cells; format: cell-based; conditions: Homo sapiens, 786-0, read-out: growth inhibition % (GI%)
UACC-62 = assay: cells; format: cell-based; conditions: Homo sapiens, UACC-62, read-out: growth inhibition % (GI%)
SR = assay: cells; format: cell-based; conditions: Homo sapiens, read-out: growth inhibition % (GI%)
IGROV1 = assay: cells; format: cell-based; conditions: Homo sapiens, IGROV-1, read-out: growth inhibition % (GI%)
EKVX = assay: cells; format: cell-based; conditions: Homo sapiens, read-out: growth inhibition % (GI%)
BT-549 = assay: cells; format: cell-based; conditions: Homo sapiens, BT-549, read-out: growth inhibition % (GI%)
SK-MEL-2 = assay: cells; format: cell-based; conditions: Homo sapiens, SK-MEL-2, read-out: growth inhibition % (GI%)
K-562 = assay: cells; format: cell-based; conditions: Homo sapiens, K562, read-out: growth inhibition % (GI%)
SF-295 = assay: cells; format: cell-based; conditions: Homo sapiens, SF-295, read-out: growth inhibition % (GI%)
[1] = system: panel of 60 tumour cell lines; assay: NCI 60 cell line antiproliferative screening (SRB), whole panel or subpanels (means, ranges, words); format: cell-based, human; conditions: Homo sapiens, 60 cell, mean over the cell line panel; 10 μM; read-out: Mean growth inhibition % (mean GI%)
HT29 = assay: cells; format: cell-based; conditions: Homo sapiens, HT-29, read-out: growth inhibition % (GI%)
SK-MEL-5 = assay: cells; format: cell-based; conditions: Homo sapiens, SK-MEL-5, read-out: growth inhibition % (GI%)
T-47D = assay: cells; format: cell-based; conditions: Homo sapiens, T47D, read-out: growth inhibition % (GI%)
A498 = assay: cells; format: cell-based; conditions: Homo sapiens, A498, read-out: growth inhibition % (GI%)
U251 = assay: cells; format: cell-based; conditions: Homo sapiens, U-251, read-out: growth inhibition % (GI%)
RPMI-8226 = assay: cells; format: cell-based; conditions: Homo sapiens, RPMI-8226, read-out: growth inhibition % (GI%)
SK-OV-3 = assay: cells; format: cell-based; conditions: Homo sapiens, SK-OV-3, read-out: growth inhibition % (GI%)
LOX IMIV = assay: cells; format: cell-based; conditions: Homo sapiens, 60 cell, read-out: growth inhibition % (GI%)
SF-268 = assay: cells; format: cell-based; conditions: Homo sapiens, SF-268, read-out: growth inhibition % (GI%)
SK-MEL-28 = assay: cells; format: cell-based; conditions: Homo sapiens, SK-MEL-28, read-out: growth inhibition % (GI%)
UO-31 = assay: cells; format: cell-based; conditions: Homo sapiens, UO-31, read-out: growth inhibition % (GI%)
CCRF-CEM = assay: cells; format: cell-based; conditions: Homo sapiens, read-out: growth inhibition % (GI%)
HOP-62 = assay: cells; format: cell-based; conditions: Homo sapiens, HOP-62, read-out: growth inhibition % (GI%)
NCI-H460 = assay: cells; format: cell-based; conditions: Homo sapiens, NCI-H460, read-out: growth inhibition % (GI%)
HS 578T = assay: cells; format: cell-based; conditions: Homo sapiens, Hs-578T, read-out: growth inhibition % (GI%)
OVCAR-5 = assay: cells; format: cell-based; conditions: Homo sapiens, OVCAR-5, read-out: growth inhibition % (GI%)

`O=C(CSc1nc2ccccc2c(=O)n1-c1ccccc1)NN=Cc1ccc(Oc2ccc(Br)cc2)cc1` [6b, N'-(4–(4-bromophenoxy)benzylidene)-2-((4-oxo-3-phenyl-3,4-dihydroquinazolin-2-yl)thio) acetohydrazide] gave an inhibition at 10 µM (SW-620) of 70.4%, an inhibition at 10 µM (MCF7) of 31.1% and an inhibition at 10 µM (PC-3) of 28.2%. It also gave an inhibition at 10 µM (MDA-MB-435) of 19.2%, an inhibition at 10 µM (KM12) of 23.7% and an inhibition at 10 µM (COLO-205) of 55.6%. The inhibition at 10 µM (MOLT-4) was 44.5%, the inhibition at 10 µM (NCI/ADR-RES) was 44.8% and the inhibition at 10 µM (MALME-3M) was 45.1%. For the same compound, the inhibition at 10 µM (HCT-116) was 92.2%, the inhibition at 10 µM (SF-539) was 31.3% and the inhibition at 10 µM (A549/ATCC) was 57.8%. For the same compound, the inhibition at 10 µM (ACHN) was under 15%, the inhibition at 10 µM (SNB-19) was 60.1% and the inhibition at 10 µM (HOP-92) was 27%. The inhibition at 10 µM (NCI-H322M) was under 15%, the inhibition at 10 µM (MDA-MB-468) was 34.9% and the inhibition at 10 µM (OVCAR-8) was 36.7%. The inhibition at 10 µM (MDA-MB-231/ATCC) was 49.1%, the inhibition at 10 µM (DU-145) was 61.7% and the inhibition at 10 µM (SN12C) was 59.3%. The inhibition at 10 µM (786-0) was 54%, the inhibition at 10 µM (UACC-62) was 31.2% and the inhibition at 10 µM (SR) was 26.6%. It also gave an inhibition at 10 µM (IGROV1) of 34.5%, an inhibition at 10 µM (EKVX) of 39.3% and an inhibition at 10 µM (BT-549) of 26.9%. It also gave an inhibition at 10 µM (SK-MEL-2) of under 15%, an inhibition at 10 µM (K-562) of 37.5% and an inhibition at 10 µM (SF-295) of 16.3%. The inhibition at 10 µM [1] was 34.8%, the inhibition at 10 µM (HT29) was 61.8% and the inhibition at 10 µM (SK-MEL-5) was 40.9%. It also gave an inhibition at 10 µM (T-47D) of 17.6%, an inhibition at 10 µM (A498) of 17.7% and an inhibition at 10 µM (U251) of 78.5%. It also gave an inhibition at 10 µM (RPMI-8226) of 31.7%, an inhibition at 10 µM (SK-OV-3) of 15.5% and an inhibition at 10 µM (LOX IMIV) of 79%. The inhibition at 10 µM (SF-268) was 15.7%, the inhibition at 10 µM (SK-MEL-28) was 29.1% and the inhibition at 10 µM (UO-31) was under 15%. For the same compound, the inhibition at 10 µM (CCRF-CEM) was 43.1%, the inhibition at 10 µM (HOP-62) was 36.1% and the inhibition at 10 µM (NCI-H460) was 72%. It also gave an inhibition at 10 µM (HS 578T) of 39.2% and an inhibition at 10 µM (OVCAR-5) of under 15%.
